Literature values, collected in patent publication US7351715B2, “Unit dosage forms for the treatment of herpes simplex” (ChronoRx, LLC, priority 1998, dated 2008).

Legend:
[1] = test system: HSV-1; settings: in vitro, supplementation with exogenous GSH
[2] = test system: herpes simplex virus infections
[3] = test system: HSV; settings: topical application, guinea pigs
[4] = test system: herpes simplex virus
[5] = rabbits and rats
[6] = test system: HSV-1; settings: in vitro cell culture

N[C@@H](CCC(=O)N[C@@H](CS)C(=O)NCC(=O)O)C(=O)O [GSH, Glutathione]
inhibition of the replication of HSV-1 [1]: over 99%

Cl.NCCCC[C@H](N)C(=O)O [L-lysine, L-lysine monohydrochloride]
effect on rate of healing or appearance of lesions ([2]; at least one study): no effect on the rate of healing or the appearance of lesions | reduction of occurrence, severity and healing time ([2]; oral, study involving 52 subjects): effective agent for the reduction of occurrence, severity and healing time | herpes simplex patients with subjective improvement ([2]; patients using L-lysine, one study): 88% | protection of skin from HSV inoculation [3]: protected the skin from HSV inoculation

O=S(=O)([O-])[O-].[Zn+2] [Zinc sulfate]
inactivation of free herpes simplex virus [4]: inactivates free herpes simplex virus

O=c1[nH]c(=O)n([C@H]2C[C@H](O)[C@@H](CO)O2)cc1I [idoxuridine, 2′-Deoxy-5-idouridine]
fetal malformations [5]: implicated in fetal malformations in rabbits and rats

O=c1c(O)c(-c2ccc(O)c(O)c2)oc2cc(O)cc(O)c12 [quercetin, 3,3′,4′,5,7-pentahydroxyflavone]
intracellular viral replication [6]: reduced intracellular viral replication | reduction of infectivity of viruses including HSV-1 [6]: concentration-dependent reduction of infectivity
